Measurements reported in US11447485B2, “Class of bifunctional compounds with quanternary ammonium salt structure” (Beijing Showby Pharmaceutical Co., Ltd., priority 2016, dated 2022).

How the values were obtained:
[1] = molecular target: T1, human recombinant β2 adrenoceptor (Homo sapiens, UniProt P07550); experiment: cell-based; assay type: cell-based; details: EC50 (β1)/EC50 (β2)
T1 construct: expressed in transfected cells

[2] = system: tracheal smooth muscle of guinea pig; experiment: Relaxation of CCh-induced constriction of isolated guinea pig tracheal smooth muscle (Experimental Example 1); details: for Onset time (min) ± SD / Time for eliminating inhibition effect (min): CCh 3 × 10^−6 mol/L, in vitro; for EC50: Cavia porcellus, read-out: EC50 (μM) ± SD
Protocol: The upper end was connected with a muscle tension transducer, and the specimen was given a resting tension of 1.0 g. Muscle tension changes were recorded, nutrient solution was changed every 20 min, and the experiment was started after 60 min of equilibrium.
Administration Method: After the trachea flake were stabilized, 3×10^−6 mol/L CCh was added to the bath. […] Diastolic condition of the trachea flake was observed. If no response occurred (below the threshold concentration), the next dosage was continued to be added in the order. If any response occurred, the next dosage was added until its diastolic platform was reached. The above operation was repeated until the shrink curve reached the minimum. Finally, 10^−6 mol/L isoproterenol was added to establish maximum relaxation, and the curve was recorded.
Statistical Methods: Statistics was performed using the Sigma Stat statistical software package, the data was analyzed by using the variance analysis. Student-Newman-Keuls (SNK) test was used in comparison among multiple sample averages number. The statistical test level was α=0.05 (bilateral).

[3] = system: bronchoconstriction response in the trachea of guinea pig induced by Mch; experiment: Bronchoconstriction induced by methacholine (Mch) in anaesthetized guinea pigs, airway dripping (Raw, Cdyn); details: Mch 10 μg/kg iv; for Cdyn (ml/cmH2O) / Raw (cmH2O/ml/s): 30 min, Mean ± S.E.M

T1 sequence (P07550 whole entry): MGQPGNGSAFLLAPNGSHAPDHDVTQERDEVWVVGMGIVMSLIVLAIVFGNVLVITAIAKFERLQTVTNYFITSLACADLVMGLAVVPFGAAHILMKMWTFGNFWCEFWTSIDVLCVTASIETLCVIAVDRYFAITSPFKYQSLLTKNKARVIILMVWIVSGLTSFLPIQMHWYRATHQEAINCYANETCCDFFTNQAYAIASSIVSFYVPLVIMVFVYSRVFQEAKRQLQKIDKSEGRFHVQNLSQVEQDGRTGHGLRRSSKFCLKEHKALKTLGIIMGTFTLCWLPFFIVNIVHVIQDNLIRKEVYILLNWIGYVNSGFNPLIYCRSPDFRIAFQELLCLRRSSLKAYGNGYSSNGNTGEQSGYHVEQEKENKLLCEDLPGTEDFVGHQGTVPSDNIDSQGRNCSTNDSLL

Row | Structure (SMILES) | sel (β1/β2) [1] | Onset time (min) ± SD [2] [min] | Time for eliminating inhibition effect (min) [2] | EC50 [2] [µM] | further results
1 | OCc1cc([C@@H](O)CNCCOCCCOCC[N+]23CCC(CC2)[C@@H](OC[C@@](O)(c2ccccc2)C2CCCC2)C3)ccc1O.[Br-] [Compound 48] | 423.8 | 6.32 ± 0.49 | more than 300 min | 0.0154 ± 0.012 | Cdyn (ml/cmH2O) ([3]; 0.1 μg/kg airway dripping): 0.115 ± 0.011 ml/cmH2O; Raw (cmH2O/ml/s) ([3]; 0.1 μg/kg airway dripping): 0.712 ± 0.065 cmH2O/ml/s; inhibitory rate of lung dynamic compliance decrease ([3]; 0.1 μg/kg airway dripping): 32.2%; inhibitory rate on airway resistance increase ([3]; 0.1 μg/kg airway dripping): 66.2%; Cdyn (ml/cmH2O) ([3]; 0.3 μg/kg airway dripping): 0.139 ± 0.012 ml/cmH2O; Raw (cmH2O/ml/s) ([3]; 0.3 μg/kg airway dripping): 0.523 ± 0.032 cmH2O/ml/s; inhibitory rate of lung dynamic compliance decrease ([3]; 0.3 μg/kg airway dripping): 48.9%; inhibitory rate on airway resistance increase ([3]; 0.3 μg/kg airway dripping): 88.3%; Cdyn (ml/cmH2O) ([3]; 1 μg/kg airway dripping): 0.207 ± 0.016 ml/cmH2O; Raw (cmH2O/ml/s) ([3]; 1 μg/kg airway dripping): 0.493 ± 0.071 cmH2O/ml/s; inhibitory rate of lung dynamic compliance decrease ([3]; 1 μg/kg airway dripping): 50.1%; inhibitory rate on airway resistance increase ([3]; 1 μg/kg airway dripping): 91.6%
2 | CCC(NC[C@H](O)c1ccc(O)c2[nH]c(=O)ccc12)c1ccc(OCCC[N+]23CCC(CC2)[C@@H](OC[C@@](O)(c2ccccc2)C2CCCC2)C3)cc1 (stereo partly drawn) [Compound 62, (R)-(−)-3-[(R)-2-hydroxy-2-cyclopentyl-2-phenyl]ethoxy-1-{3-[4-(1-{(R)-[2-hydroxy-2-(8-hydroxy-2-oxo-1,2-dihydroquinolin-5-yl)]ethylamino}propylidene)phenoxy]propyl}-1-azabicyclo[2,2,2]octylonium bromide] | 126.7 | 7.02 ± 0.22 | more than 300 min | 0.0351 ± 0.01 | –
3 | CC(C)(NC[C@H](O)c1ccc(O)c(CO)c1)c1ccc(OCCC[N+]23CCC(CC2)[C@@H](OC[C@@](O)(c2ccccc2)C2CCCC2)C3)cc1.[Br-] [Compound 71] | 468.2 | 6.92 ± 0.26 | more than 300 min | 0.019 ± 0.0061 | –
4 | CC(Cc1ccc(OCC[N+]23CCC(CC2)[C@@H](OC[C@@](O)(c2ccccc2)C2CCCC2)C3)cc1)NC[C@H](O)c1ccc(O)c(CO)c1.[Br-] (stereo partly shown) [Compound 75] | 56.8 | 6.38 ± 0.35 | more than 300 min | 0.176 ± 0.031 | –
5 | O=c1ccc2c([C@@H](O)CNCCc3ccc(OCCC[N+]45CCC(CC4)[C@@H](OC[C@@](O)(c4ccc(Cl)cc4)C4CCCC4)C5)cc3)ccc(O)c2[nH]1.[Br-] [Compound 78] | 108.6 | 6.48 ± 0.38 | more than 300 min | 0.0137 ± 0.0078 | –
6 | CC(C)(NC[C@H](O)c1ccc(O)c2[nH]c(=O)ccc12)c1ccc(OCCC[N+]23CCC(CC2)[C@@H](OC[C@@](O)(c2ccccc2)C2CCCC2)C3)cc1 [Compound 84] | 238.8 | 6.78 ± 0.18 | more than 300 min | 0.0251 ± 0.0086 | –
7 | CCC(NC[C@H](O)c1ccc(O)c(NC=O)c1)c1ccc(OCCC[N+]23CCC(CC2)[C@@H](OC[C@@](O)(c2ccccc2)C2CCCC2)C3)cc1.[Br-] (stereo partly shown) [Compound 97] | 56.7 | 6.36 ± 0.22 | more than 300 min | 0.0167 ± 0.0062 | –
8 | O=C1COc2c(cc(O)cc2[C@@H](O)CNCc2ccc(OCCC[N+]34CCC(CC3)[C@@H](OC[C@@](O)(c3ccccc3)C3CCCC3)C4)cc2)N1 [Compound 102] | 102.6 | 5.78 ± 0.23 | more than 300 min | 0.0371 ± 0.019 | –
9 | O=C1COc2c(cc(O)cc2[C@@H](O)CNCCCc2ccc(OCCC[N+]34CCC(CC3)[C@@H](OC[C@@](O)(c3ccccc3)C3CCCC3)C4)cc2)N1 [Compound 104] | 29.6 | 6.67 ± 0.17 | more than 300 min | 0.0106 ± 0.0079 | –
10 | O=C1COc2c(cc(O)cc2[C@@H](O)CNCc2cc(Cl)c(OCCC[N+]34CCC(CC3)[C@@H](OC[C@@](O)(c3ccccc3)C3CCCC3)C4)c(Cl)c2)N1.[Br-] [Compound 106] | 288.9 | 6.26 ± 0.24 | more than 300 min | 0.0183 ± 0.0086 | –
11 | OCc1cc([C@@H](O)CNCCOc2ccc(OCC[N+]34CCC(CC3)[C@@H](OC[C@@](O)(c3ccccc3)C3CCCC3)C4)cc2)ccc1O [Compound 114, (R)-(−)-3-[(R)-2-hydroxy-2-cyclopentyl-2-phenyl]ethoxy-1-{2-[4-(2-{(R)-[2-(3-hydroxymethyl-4-hydroxy)phenyl-2-hydroxy]ethylamino}ethyoxyl)phenoxy]ethyl}-1-azabicyclo[2,2,2]octylonium bromide] | 98.9 | 6.24 ± 0.13 | more than 300 min | – | –
12 | COc1cc(CNCC(O)c2ccc(O)c3[nH]c(=O)ccc23)c(Cl)cc1NC(=O)CC[N+]12CCC(CC1)C(OCC(O)(c1ccccc1)C1CCCC1)C2 [Compound 115, (R)-(−)-3-[(R)-2-hydroxy-2-cyclopentyl-2-phenyl]ethoxy-1-{3-[5-chloro-2-methoxy-4-({(R)-[2-hydroxy-2-(8-hydroxy-2-oxo-1,2-dihydroquinolin-5-yl)]ethylamino}methyl)anilino]oxopropyl}-1-azabicyclo[2,2,2]octylonium bromide] | 85.5 | 6.82 ± 0.36 | more than 300 min | 0.0237 ± 0.01 | –
13 | O=C(CC[N+]12CCC(CC1)[C@@H](OC[C@@](O)(c1ccccc1)C1CCCC1)C2)Nc1ccc(CNC[C@H](O)c2cc(O)cc3c2OCC(=O)N3)cc1 [Compound 116, (R)-(−)-3-[(R)-2-hydroxy-2-cyclopentyl-2-phenyl]ethoxy-1-{3-[4-({(R)-[2-hydroxy-2-(6-hydroxy-2H-1,4-benzoxazin-3(4H)-one-8-yl)]ethylamino}methyl)anilino]oxopropyl}-1-azabicyclo[2,2,2]octylonium bromide] | 68.8 | 6.28 ± 0.56 | more than 300 min | 0.0267 ± 0.0072 | –
14 | CC(NC[C@H](O)c1ccc(O)c(NC=O)c1)c1ccc(COCC[N+]23CCC(CC2)[C@@H](OC[C@@](O)(c2ccccc2)C2CCCC2)C3)cc1 (stereo partly drawn) [Compound 117, (R)-(−)-3-[(R)-2-hydroxy-2-cyclopentyl-2-phenyl]ethoxy-1-{2-[4-(2-{(R)-[2-hydroxy-2-(3-formamido-4-hydroxy)phenyl]ethylamino}ethylidene)benzyloxy]ethyl}-1-azabicyclo[2,2,2]octylonium bromide] | 39.8 | 5.96 ± 0.21 | more than 300 min | 0.0217 ± 0.0081 | –
15 | O=C1COc2c(cc(O)cc2[C@@H](O)CNCCOCc2ccc(COCC[N+]34CCC(CC3)[C@@H](OC[C@@](O)(c3ccccc3)C3CCCC3)C4)cc2)N1 [Compound 118, (R)-(−)-3-[(R)-2-hydroxy-2-cyclopentyl-2-phenyl]ethoxy-1-{2-[4-(2-{(R)-[2-hydroxy-2-(6-hydroxy-2H-1,4-benzoxazin-3(4H)-one-8-yl)]ethylamino}ethoxymethyl)benzyloxy]ethyl}-1-azabicyclo[2,2,2]octylonium bromide] | 23.8 | 6.24 ± 0.41 | more than 300 min | 0.0241 ± 0.012 | –
16 | Cc1cc(CNC[C@H](O)c2ccc(O)c(NC=O)c2)ccc1NC(=O)CC[N+]12CCC(CC1)[C@@H](OC[C@@](O)(c1ccccc1)C1CCCC1)C2.[Br-] [Compound 140] | 86.9 | 6.18 ± 0.18 | more than 300 min | 0.0235 ± 0.0054 | –
17 | COC1CCC([C@@](O)(CO[C@H]2C[N+]3(CCC(=O)Nc4ccc(CNC[C@H](O)c5ccc(O)c(NC=O)c5)cc4)CCC2CC3)c2ccccc2)C1.[Br-] (stereo partly shown) [Compound 141] | 135.9 | 5.88 ± 0.26 | more than 300 min | 0.0363 ± 0.0095 | –
